The values that follow come from patent publication US10399940B2, “Substituted pyrrolidines and methods of use” (AbbVie S.à.r.l., priority 2016, dated 2019).

The target of this assay is T1, F508delCFTR (Homo sapiens, UniProt P13569, DEL508-508).
T1 construct: expressed in transfected cells; host or cells: CFBE41o- (human lung derived epithelial cell line), doxycycline-inducible expression
As to the kind of experiment: Cell Surface Expression-Horse Radish Peroxidase (CSE-HRP) assay. In kind it is cell-based. The settings on record: CFBE41o-F508delCFTR-HRP cells; for Maximum % activity (with co-corrector): with co-corrector (2 μM); for Maximum % activity (with co-corrector) / Maximum % activity (without co-corrector): normalized to on-plate positive control, highest concentration 20 μM. How it is done:
Cell Surface Expression-Horse Radish Peroxidase (CSE-HRP) Assay
A cellular assay for measuring the F508delCFTR cell surface expression after correction with test compounds either without or with a co-corrector (2 μM of 3-[(2R,4R)-4-({[1-(2,2-difluoro-1,3-benzodioxol-5-yl)cyclopropyl]carbonyl}amino)-7-methoxy-3,4-dihydro-2H-chromen-2-yl]benzoic acid), was developed in human lung derived epithelial cell line (CFBE41o-) (Veit G et al, (2012) Mol Biol Cell. 23(21): 4188-4202). The development was achieved by expressing the F508delCFTR mutation along with a horseradish peroxidase (HRP) in the fourth exofacial loop, and then measuring the HRP activity using luminescence readout from these cells, CFBE41o-F508delCFTR-HRP, that were incubated overnight with the test corrector compounds, either without or with the co-corrector. For this primary assay, the CFBE41o-F508delCFTR-HRP cells were plated in 384-well plates (Greiner Bio-one; Cat 781080) at 4,000 cells/well along with 0.5 μg/mL doxycycline to induce the F508delCFTR-HRP expression and further incubated at 37° C., 5% CO2 for 72 hours. The test compounds were then added either without or with a co-corrector at the required concentrations and further incubated for 18-24 hours at 33° C. The highest concentration tested was 20 μM with an 8-point concentration response curve using a 3-fold dilution in both the test compound without or with the co-corrector. Three replicate plates were run to determine one EC50. All plates contained negative controls (dimethyl sulfoxide, DMSO) and positive control (2 μM of 3-[(2R,4R)-4-({[1-(2,2-difluoro-1,3-benzodioxol-5-yl)cyclopropyl]carbonyl}amino)-7-methoxy-3,4-dihydro-2H-chromen-2-yl]benzoic acid) as well as on-plate concentration response of the positive control. Post incubation, the plates were washed 5× times with Dulbecco's phosphate buffered saline (DPBS), followed by the addition of the HRP substrate, luminol (50 μL), and measuring the HRP activity using luminescence readout on EnVision® Multilabel Plate Reader (Perkin Elmer; product number 2104-0010). The raw counts from the experiment were analyzed using Accelrys® Assay Explorer v3.3.
Z′ greater than 0.5 was used as passing quality control criteria for the plates.
The Z′ is defined as: 1−[3*SDPositive Control+3*SDNegative Control/Absolute(MeanPositive Control−MeanNegative Control)] wherein “SD” is standard deviation.
The % activity measured at each of the 8 test concentrations of the test compound added either without or with a co-corrector (2 μM of 3-[(2R,4R)-4-({[1-(2,2-difluoro-1,3-benzodioxol-5-yl)cyclopropyl]carbonyl}amino)-7-methoxy-3,4-dihydro-2H-chromen-2-yl]benzoic acid) was normalized to the on-plate positive control using the following formulae: % activity(Test compound without co-corrector)=[(test compound without co-corrector response−DMSO response)/(positive control response−DMSO response)]*100 % activity(Test compound with co-corrector)=[(test compound with co-corrector response−DMSO response)/(positive control response−DMSO response)]*100
The maximum % activity achieved for the test compound either without or with a co-corrector at any tested concentration is presented in Table 1 along with the respective EC50's calculated using the following general sigmoidal curve with variable Hill slope equation (described as Model 42 in the Accelrys® Assay Explorer v3.3 software): y=(a−d)/(1+(x/c)^b)+d
General sigmoidal curve with concentration, response, top, bottom, EC50 and Hill slope. This model describes a sigmoidal curve with an adjustable baseline, a. The equation can be used to fit curves where response is either increasing or decreasing with respect to the independent variable, “x”. • “x” is a concentration of drug under test. • “y” is the response. • “a” is the maximum response, and “d” is the minimum response • “c” is the inflection point (EC50) for the curve. That is, “y” is halfway between the lower and upper asymptotes when x=c. “b” is the slope-factor or Hill coefficient. […]

The mark [1] stands for this setting: test compound without co-corrector, 18-24 hours at 33° C., read-out: EC50 (without co-corrector).
Setting [2] is: with co-corrector (2 μM of 3-[(2R,4R)-4-({[1-(2,2-difluoro-1,3-benzodioxol-5-yl)cyclopropyl]carbonyl}amino)-7-methoxy-3,4-dihydro-2H-chromen-2-yl]benzoic acid), read-out: EC50 (with co-corrector).

The structures appear in SMILES notation. Where two headings read alike, the source gives them in different places.

T1 sequence (P13569 with tags, fused parts or gaps DEL508-508): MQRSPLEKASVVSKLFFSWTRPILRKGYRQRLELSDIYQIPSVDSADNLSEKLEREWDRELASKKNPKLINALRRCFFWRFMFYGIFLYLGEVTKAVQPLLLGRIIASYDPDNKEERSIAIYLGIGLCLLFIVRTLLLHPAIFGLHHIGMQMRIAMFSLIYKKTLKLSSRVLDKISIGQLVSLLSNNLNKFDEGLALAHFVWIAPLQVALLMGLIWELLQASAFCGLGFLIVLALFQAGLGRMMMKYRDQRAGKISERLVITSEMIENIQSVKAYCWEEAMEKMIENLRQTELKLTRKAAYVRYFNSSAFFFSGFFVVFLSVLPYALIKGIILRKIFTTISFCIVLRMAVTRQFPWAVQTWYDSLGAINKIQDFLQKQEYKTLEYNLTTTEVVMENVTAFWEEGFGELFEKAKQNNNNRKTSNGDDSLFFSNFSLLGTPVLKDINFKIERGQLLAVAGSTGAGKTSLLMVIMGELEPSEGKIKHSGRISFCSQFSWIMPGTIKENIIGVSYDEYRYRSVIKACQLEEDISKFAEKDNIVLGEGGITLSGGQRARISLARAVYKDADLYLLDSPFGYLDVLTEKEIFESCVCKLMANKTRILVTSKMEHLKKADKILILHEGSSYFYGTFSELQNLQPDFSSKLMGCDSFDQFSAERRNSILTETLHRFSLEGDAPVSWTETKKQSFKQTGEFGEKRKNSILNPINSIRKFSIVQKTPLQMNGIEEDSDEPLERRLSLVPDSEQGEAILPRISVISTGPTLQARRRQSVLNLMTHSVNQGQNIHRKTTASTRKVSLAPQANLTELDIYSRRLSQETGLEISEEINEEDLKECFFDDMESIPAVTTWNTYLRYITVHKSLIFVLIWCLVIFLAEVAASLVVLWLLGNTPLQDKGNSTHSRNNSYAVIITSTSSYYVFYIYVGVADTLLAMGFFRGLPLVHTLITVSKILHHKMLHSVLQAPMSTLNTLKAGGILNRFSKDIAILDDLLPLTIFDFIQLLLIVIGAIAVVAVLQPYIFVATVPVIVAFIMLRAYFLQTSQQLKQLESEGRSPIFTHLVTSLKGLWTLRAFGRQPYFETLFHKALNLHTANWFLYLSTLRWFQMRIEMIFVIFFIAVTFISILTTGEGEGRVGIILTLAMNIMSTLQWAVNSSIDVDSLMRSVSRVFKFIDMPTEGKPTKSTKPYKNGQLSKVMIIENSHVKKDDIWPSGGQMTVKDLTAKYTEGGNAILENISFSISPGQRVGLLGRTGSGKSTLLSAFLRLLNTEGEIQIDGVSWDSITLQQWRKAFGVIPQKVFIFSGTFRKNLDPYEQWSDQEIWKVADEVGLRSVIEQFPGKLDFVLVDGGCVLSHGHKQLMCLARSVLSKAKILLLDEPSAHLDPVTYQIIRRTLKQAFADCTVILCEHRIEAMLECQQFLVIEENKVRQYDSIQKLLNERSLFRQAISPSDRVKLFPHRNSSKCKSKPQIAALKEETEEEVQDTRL

A word on the EC50: it is the midpoint of the concentration-response curve. On to `COc1cc(Cl)ccc1COC1[C@@H](c2ccccc2OC)N(C(=O)C2CCCCC2)[C@@H](C(=O)O)[C@@H]1C(C)(C)C` (mixture of isomers) [Example 14, rac-(2R,3S,5R)-3-tert-butyl-4-[(4-chloro-2-methoxyphenyl)methoxy]-1-(cyclohexanecarbonyl)-5-(2-methoxyphenyl)pyrrolidine-2-carboxylic acid], for which the “Maximum % activity (with co-corrector)” value is “+++ (≥350)”; the “Maximum % activity (without co-corrector)” value is “++ (≥100 and <200)”. In addition, under setting [1], the 50% effective concentration (EC50) fell in the range of 1 to 10 µM. For the same compound, under setting [2], the EC50 fell in the range of 1 to 10 µM.
As to `COc1ccc(C(F)(F)F)cc1COC1[C@@H](c2cccnc2N(C)C)N(C(=O)C2CCCCC2)[C@@H](C(=O)O)[C@@H]1C(C)(C)C` (mixture of isomers) [Example 15, rac-(2R,3S,5R)-3-tert-butyl-1-(cyclohexanecarbonyl)-5-[2-(dimethylamino)pyridin-3-yl]-4-{[2-methoxy-5-(trifluoromethyl)phenyl]methoxy}pyrrolidine-2-carboxylic acid], the “Maximum % activity (with co-corrector)” value is reported as “+++ (≥350)”; the “Maximum % activity (without co-corrector)” value is “++ (≥100 and <200)”. Also, the EC50 under setting [1] lay in the range of 1 to 10 µM. For the same compound, the concentration giving a half-maximal response (EC50) under setting [2] lay in the range of 1 to 10 µM.
Regarding `COc1ccc(C(F)(F)F)cc1COC1[C@@H](c2ccccc2)N(C(=O)C2CCCCC2)[C@@H](C(=O)NS(C)(=O)=O)[C@@H]1C(C)(C)C` (mixture of isomers) [Example 16, rac-(2R,3S,5R)-3-tert-butyl-1-(cyclohexanecarbonyl)-N-(methanesulfonyl)-4-{[2-methoxy-5-(trifluoromethyl)phenyl]methoxy}-5-phenylpyrrolidine-2-carboxamide], the “Maximum % activity (with co-corrector)” value was “++ (≥150 and <350)”; the “Maximum % activity (without co-corrector)” value was “+ (<100)”. Besides, under setting [1], the EC50 was 1 to 10 µM. In addition, the concentration for a half-maximal effect (EC50) under setting [2] fell in the range of 1 to 10 µM.
For the compound `COc1ccc(Cl)cc1COC1[C@@H](c2ccccc2)N(C(=O)OC(C)C)[C@@H](C(=O)O)[C@@H]1C(C)(C)C` (mixture of isomers) [Example 17, rac-(2R,3S,5R)-3-tert-butyl-4-[(5-chloro-2-methoxyphenyl)methoxy]-5-phenyl-1-{[(propan-2-yl)oxy]carbonyl}pyrrolidine-2-carboxylic acid], the “Maximum % activity (with co-corrector)” value is on record as “+++ (≥350)”; the “Maximum % activity (without co-corrector)” value was “++ (≥100 and <200)”. Also, the EC50 under setting [1] lay within 1 to 10 µM. Moreover, under setting [2], the EC50 lay within 1 to 10 µM.
On to `COc1ncc(C(F)(F)F)cc1CO[C@@H]1[C@@H](C(C)(C)C)[C@H](C(=O)O)N(C(=O)C2CCCCC2)[C@@H]1c1ccccc1` (racemic) [Example 20, rac-(2R,3S,4R,5R)-3-tert-butyl-1-(cyclohexanecarbonyl)-4-{[2-methoxy-5-(trifluoromethyl)pyridin-3-yl]methoxy}-5-phenylpyrrolidine-2-carboxylic acid], for which the “Maximum % activity (with co-corrector)” value is on record as “+++ (≥350)”; the “Maximum % activity (without co-corrector)” value is “++ (≥100 and <200)”. Moreover, the concentration giving a half-maximal response (EC50) under setting [1] was less than 1 µM. Further, the concentration giving a half-maximal response (EC50) under setting [2] is less than 1 µM.
As to `COc1cc(C(F)(F)F)ccc1CO[C@@H]1[C@@H](C(C)(C)C)[C@H](C(=O)O)N(C(=O)OC2CCC2)[C@@H]1c1ccccc1` (racemic) [Example 34, rac-(2R,3S,4R,5R)-3-tert-butyl-1-[(cyclobutyloxy)carbonyl]-4-{[2-methoxy-4-(trifluoromethyl)phenyl]methoxy}-5-phenylpyrrolidine-2-carboxylic acid], the “Maximum % activity (with co-corrector)” value was “+++ (≥350)” and the “Maximum % activity (without co-corrector)” value is “+ (<100)”. Besides, the half-maximal effective concentration (EC50) under setting [1] fell in the range of 1 to 10 µM. Under setting [2], the EC50 lay in the range of 1 to 10 µM.
Consider `COc1ccc(Cl)cc1CO[C@@H]1[C@@H](C(C)(C)C)[C@H](C(=O)O)N(C(=O)OC2CCC2)[C@@H]1c1ccccc1` (racemic) [Example 35, rac-(2R,3S,4R,5R)-3-tert-butyl-4-[(5-chloro-2-methoxyphenyl)methoxy]-1-[(cyclobutyloxy)carbonyl]-5-phenylpyrrolidine-2-carboxylic acid], for which the “Maximum % activity (with co-corrector)” value was “+++ (≥350)”; the “Maximum % activity (without co-corrector)” value was “++ (≥100 and <200)”. The 50% effective concentration (EC50) under setting [1] was 1 to 10 µM. The EC50 under setting [2] fell in the range of 1 to 10 µM.
On to `COc1ccc(C(F)(F)F)cc1CO[C@@H]1[C@@H](C(C)(C)C)[C@H](C(=O)O)N(C(=O)N(C(C)C)C(C)C)[C@@H]1c1ccccc1` (single isomer, unassigned) [Example 8, (2R*,3S*,4R*,5R*)-3-tert-butyl-1-[di(propan-2-yl)carbamoyl]-4-{[2-methoxy-5-(trifluoromethyl)phenyl]methoxy}-5-phenylpyrrolidine-2-carboxylic acid], for which the “Maximum % activity (with co-corrector)” value is given as “+ (<150)” and the “Maximum % activity (without co-corrector)” value is “+ (<100)”. The half-maximal effective concentration (EC50) under setting [1] is more than 10 µM. For the same compound, the EC50 under setting [2] was more than 10 µM.
With `COc1ccc(C(F)(F)F)cc1CO[C@H]1[C@H](C(C)(C)C)[C@@H](C(=O)O)N(C(=O)N(C(C)C)C(C)C)[C@H]1c1ccccc1` (single isomer, unassigned) [Example 9, (2S*,3R*,4S*,5S*)-3-tert-butyl-1-[di(propan-2-yl)carbamoyl]-4-{[2-methoxy-5-(trifluoromethyl)phenyl]methoxy}-5-phenylpyrrolidine-2-carboxylic acid], the “Maximum % activity (with co-corrector)” value is on record as “+ (<150)” and the “Maximum % activity (without co-corrector)” value is reported as “+ (<100)”. The EC50 under setting [1] was more than 10 µM. In addition, under setting [2], the EC50 is more than 10 µM.
For `COc1ncc(C(F)(F)F)cc1CO[C@H]1[C@H](C(C)(C)C)[C@@H](C(=O)O)N(C(=O)[C@H]2CCCCO2)[C@H]1c1cccc(C(C)(C)C)c1` (single isomer, unassigned) [Example 157], the “Maximum % activity (with co-corrector)” value is “++ (≥150 and <350)”; the “Maximum % activity (without co-corrector)” value was “+ (<100)”. Besides, under setting [1], the concentration giving a half-maximal response (EC50) was less than 1 µM. Moreover, the EC50 under setting [2] is less than 1 µM.
For the compound `COc1ncc(C(F)(F)F)cc1CO[C@H]1[C@H](C(C)(C)C)[C@@H](C(=O)O)N(C(=O)[C@@H]2CCCC[C@H]2C(F)(F)F)[C@H]1c1cccnc1OC(C)C` (single isomer, unassigned) [Example 282], the “Maximum % activity (with co-corrector)” value is recorded as “+++ (≥350)” and the “Maximum % activity (without co-corrector)” value is “+ (<100)”. Further, the EC50 under setting [1] was less than 1 µM. Further, the EC50 under setting [2] is less than 1 µM.
In the case of `COc1ncc(C(F)(F)F)cc1CO[C@H]1[C@H](C(C)(C)C)[C@@H](C(=O)O)N(C(=O)[C@H]2CCCC[C@@H]2C(F)(F)F)[C@H]1c1cccnc1OC(C)C` (single isomer, unassigned) [Example 283], the “Maximum % activity (with co-corrector)” value is on record as “+++ (≥350)” and the “Maximum % activity (without co-corrector)” value is reported as “+ (<100)”. Moreover, the 50% effective concentration (EC50) under setting [1] is less than 1 µM. Besides, under setting [2], the EC50 is 1 to 10 µM.
